Results as given in patent US11419806B2, “Prebiotic oral care methods using a saccharide” (Colgate-Palmolive Company, priority 2013, dated 2022).

Key:
Assay in all cases: Twenty-four hour biofilm growth (crystal violet)
Format in all cases: cell-based
[1] = test system: S. mutans; conditions: S mutans
Experimental: (§1) The increase in biofilm formation of the tested bacteria in response to selected saccharides (D-turanose, D-lactitol, myo-inositol, and N-acetyl-D-mannosamine) was investigated by setting up biofilm growth assays in a nutritionally rich medium (brain heart infusion broth (BHI), Oxoid), over 24 hours. Late exponential growth phase liquid cultures were prepared by transferring the respective bacterium from blood agar plates to BHI and overnight incubation at 37° C. in an anaerobic atmosphere for A. viscosus, V. parvula, P. gingivalis, P. intermedia, T. forsythia, A. naeslundii, and C. sputigena, and in a 5% CO2 environment for S. salivarius, S. sanguinis, S. mitis, A. actinomycetemcomitans, S. mutans, and S. gordonii. Overnight cultures were transferred to BHI and adjusted to a concentration of 1×10^7 CFU/ml by measuring the optical density at 600 nm (OD600) (BioRad SmartSpec 3000). For each strain, 200 μl of the bacterial suspension was added to a 96-well plate containing 20 μl of the respective saccharides. Final concentrations of the saccharides were set to 5, 10, 20 and 25 μmol/ml. […] Additionally, for each bacterium tested, a background control, to correct for background staining, was added. This background control contained the bacterium tested and 0.03 weight % chlorhexidine, as an antiseptic. Plates were incubated as previously described. After 24 hrs the supernatant was removed from the wells of the plates. The wells were washed twice with 1×100 μL PBS (phosphate buffered saline), fixed for 20 minutes with 96% vol. ethanol (96% vol. solution in water) and the biofilm retained at the bottom of the wells was stained with 1 weight % crystal violet (1 weight % solution in water). The bound dye was dissolved with 5% vol. acetic acid (5% vol. solution in water). Quantification of the stained biofilm was performed by measuring the absorbance at 630 nm using a Multiskan Ascent microplate reader (Thermo Scientific).
(§2) The experiment was carried out on three different days (thus providing 3 biological replicas) and each day the experiment was carried out in quadruple (thus providing 4 technical replicas) for each combination of bacterium with saccharide and for each control. For each day and for each combination, the average (mean) of the values obtained (as detailed above) for the four technical replicas was calculated to provide a single value for each combination on each day. The values shown in Tables 7a, 7b, 8a, 8b, below, are the average (mean) of the three single values obtained for each combination of bacterium with saccharide.

[2] = test system: P. intermedia
Experimental: as §1, §2

[3] = test system: T. forsythia
Experimental: as §1, §2

[4] = test system: S. mitis
Experimental: as §1, §2

[5] = test system: S. salivarius
Experimental: as §1, §2

[6] = test system: A. naeslundii
Experimental: as §1, §2

[7] = test system: S. gordonii
Experimental: as §1, §2

[8] = test system: V. parvula
Experimental: as §1, §2

[9] = test system: P. gingivalis
Experimental: as §1, §2

[10] = test system: A. actinomycetemcomitans
Experimental: as §1, §2

[11] = test system: A. viscosus
Experimental: as §1, §2

[12] = test system: S. sanguinis
Experimental: as §1, §2

[13] = test system: C. sputigena
Experimental: as §1, §2

With `O[C@H]1[C@H](O)[C@@H](O)[C@H](O)[C@@H](O)[C@H]1O` [Myo-Inositol, (1R,2R,3S,4S,5R,6S)-cyclohexane-1,2,3,4,5,6-hexol] the “biofilm growth: OD 630 nm at 24 hrs divided by OD of control (control = 1)” value ([1]; 5 μmol/ml) was 0.9177, the “biofilm growth: OD 630 nm at 24 hrs divided by OD of control (control = 1)” value ([1]; 10 μmol/ml) was 1.0152 and the “biofilm growth: OD 630 nm at 24 hrs divided by OD of control (control = 1)” value ([1]; 20 μmol/ml) was 1.1995. For the same compound, the “biofilm growth: OD 630 nm at 24 hrs divided by OD of control (control = 1)” value ([1]; 25 μmol/ml) was 1.4107, the “biofilm growth: OD 630 nm at 24 hrs divided by OD of control (control = 1)” value ([2]; 5 μmol/ml) was 1.1539 and the “biofilm growth: OD 630 nm at 24 hrs divided by OD of control (control = 1)” value ([2]; 10 μmol/ml) was 1.2210. For the same compound, the “biofilm growth: OD 630 nm at 24 hrs divided by OD of control (control = 1)” value ([2]; 20 μmol/ml) was 1.1660, the “biofilm growth: OD 630 nm at 24 hrs divided by OD of control (control = 1)” value ([2]; 25 μmol/ml) was 1.0417 and the “biofilm growth: OD 630 nm at 24 hrs divided by OD of control (control = 1)” value ([3]; 5 μmol/ml) was 0.6841. For the same compound, the “biofilm growth: OD 630 nm at 24 hrs divided by OD of control (control = 1)” value ([3]; 10 μmol/ml) was 0.6396, the “biofilm growth: OD 630 nm at 24 hrs divided by OD of control (control = 1)” value ([3]; 20 μmol/ml) was 0.7688 and the “biofilm growth: OD 630 nm at 24 hrs divided by OD of control (control = 1)” value ([3]; 25 μmol/ml) was 0.6940. The “biofilm growth: OD 630 nm at 24 hrs divided by OD of control (control = 1)” value ([4]; 5 μmol/ml) was 1.2433, the “biofilm growth: OD 630 nm at 24 hrs divided by OD of control (control = 1)” value ([4]; 10 μmol/ml) was 1.0616 and the “biofilm growth: OD 630 nm at 24 hrs divided by OD of control (control = 1)” value ([4]; 20 μmol/ml) was 1.1754. For the same compound, the “biofilm growth: OD 630 nm at 24 hrs divided by OD of control (control = 1)” value ([4]; 25 μmol/ml) was 1.1357, the “biofilm growth: OD 630 nm at 24 hrs divided by OD of control (control = 1)” value ([5]; 5 μmol/ml) was 0.8358 and the “biofilm growth: OD 630 nm at 24 hrs divided by OD of control (control = 1)” value ([5]; 10 μmol/ml) was 0.9694. The “biofilm growth: OD 630 nm at 24 hrs divided by OD of control (control = 1)” value ([5]; 20 μmol/ml) was 0.8119, the “biofilm growth: OD 630 nm at 24 hrs divided by OD of control (control = 1)” value ([5]; 25 μmol/ml) was 0.8202 and the “biofilm growth: OD 630 nm at 24 hrs divided by OD of control (control = 1)” value ([6]; 5 μmol/ml) was 1.0309. For the same compound, the “biofilm growth: OD 630 nm at 24 hrs divided by OD of control (control = 1)” value ([6]; 10 μmol/ml) was 1.0353, the “biofilm growth: OD 630 nm at 24 hrs divided by OD of control (control = 1)” value ([6]; 20 μmol/ml) was 1.0270 and the “biofilm growth: OD 630 nm at 24 hrs divided by OD of control (control = 1)” value ([6]; 25 μmol/ml) was 1.0456. For the same compound, the “biofilm growth: OD 630 nm at 24 hrs divided by OD of control (control = 1)” value ([7]; 5 μmol/ml) was 0.6178, the “biofilm growth: OD 630 nm at 24 hrs divided by OD of control (control = 1)” value ([7]; 10 μmol/ml) was 0.6384 and the “biofilm growth: OD 630 nm at 24 hrs divided by OD of control (control = 1)” value ([7]; 20 μmol/ml) was 0.6650. For the same compound, the “biofilm growth: OD 630 nm at 24 hrs divided by OD of control (control = 1)” value ([7]; 25 μmol/ml) was 0.6716, the “biofilm growth: OD 630 nm at 24 hrs divided by OD of control (control = 1)” value ([8]; 5 μmol/ml) was 1.0021 and the “biofilm growth: OD 630 nm at 24 hrs divided by OD of control (control = 1)” value ([8]; 10 μmol/ml) was 1.1121. For the same compound, the “biofilm growth: OD 630 nm at 24 hrs divided by OD of control (control = 1)” value ([8]; 20 μmol/ml) was 1.0036, the “biofilm growth: OD 630 nm at 24 hrs divided by OD of control (control = 1)” value ([8]; 25 μmol/ml) was 1.0399 and the “biofilm growth: OD 630 nm at 24 hrs divided by OD of control (control = 1)” value ([9]; 5 μmol/ml) was 0.9325. For the same compound, the “biofilm growth: OD 630 nm at 24 hrs divided by OD of control (control = 1)” value ([9]; 10 μmol/ml) was 0.9657, the “biofilm growth: OD 630 nm at 24 hrs divided by OD of control (control = 1)” value ([9]; 20 μmol/ml) was 0.9448 and the “biofilm growth: OD 630 nm at 24 hrs divided by OD of control (control = 1)” value ([9]; 25 μmol/ml) was 1.0290. For the same compound, the “biofilm growth: OD 630 nm at 24 hrs divided by OD of control (control = 1)” value ([10]; 5 μmol/ml) was 0.8323, the “biofilm growth: OD 630 nm at 24 hrs divided by OD of control (control = 1)” value ([10]; 10 μmol/ml) was 0.8378 and the “biofilm growth: OD 630 nm at 24 hrs divided by OD of control (control = 1)” value ([10]; 20 μmol/ml) was 0.9661. The “biofilm growth: OD 630 nm at 24 hrs divided by OD of control (control = 1)” value ([10]; 25 μmol/ml) was 0.9898, the “biofilm growth: OD 630 nm at 24 hrs divided by OD of control (control = 1)” value ([11]; 5 μmol/ml) was 0.8136 and the “biofilm growth: OD 630 nm at 24 hrs divided by OD of control (control = 1)” value ([11]; 10 μmol/ml) was 0.8735. For the same compound, the “biofilm growth: OD 630 nm at 24 hrs divided by OD of control (control = 1)” value ([11]; 20 μmol/ml) was 0.8117, the “biofilm growth: OD 630 nm at 24 hrs divided by OD of control (control = 1)” value ([11]; 25 μmol/ml) was 0.8167 and the “biofilm growth: OD 630 nm at 24 hrs divided by OD of control (control = 1)” value ([12]; 5 μmol/ml) was 2.4209. The “biofilm growth: OD 630 nm at 24 hrs divided by OD of control (control = 1)” value ([12]; 10 μmol/ml) was 2.3658, the “biofilm growth: OD 630 nm at 24 hrs divided by OD of control (control = 1)” value ([12]; 20 μmol/ml) was 2.1878 and the “biofilm growth: OD 630 nm at 24 hrs divided by OD of control (control = 1)” value ([12]; 25 μmol/ml) was 2.1240. The “biofilm growth: OD 630 nm at 24 hrs divided by OD of control (control = 1)” value ([13]; 5 μmol/ml) was 0.9276, the “biofilm growth: OD 630 nm at 24 hrs divided by OD of control (control = 1)” value ([13]; 10 μmol/ml) was 0.9522 and the “biofilm growth: OD 630 nm at 24 hrs divided by OD of control (control = 1)” value ([13]; 20 μmol/ml) was 0.9758. For the same compound, the “biofilm growth: OD 630 nm at 24 hrs divided by OD of control (control = 1)” value ([13]; 25 μmol/ml) was 0.8233.
